Experimental findings from patent US20240209028A1, “CNP COMPOUNDS” (priority 2022, published 2024) are described below.

Starred links: 1 amine or outer side, 2 acyl side, 3 side chain; linkers in the order of their positions; H or OH if unused. Positions of bridges follow the written chain, without caps; N, C: chain ends. Residues, ends and D or L forms follow the SMILES beside them. *: point of attachment. C18 diacid = O=C(O)CCCCCCCCCCCCCCCCC(=O)*; γGlu = O=C(O)[C@H](CCC(=O)[*:2])N[*:1]

Data set [1] is described as follows: PK after i.v. and s.c. administration to Göttingen minipig. Particulars: female, Göttingen, minipig, in vivo. On the procedure: The purpose of this study was to investigate pharmacokinetic and pharmacodynamic properties after intravenous (i.v.) and subcutaneous (s.c.) administration to Gottingen Minipig and domestic LYD pig, and to estimate bioavailability after s.c. dosing. Quantitative plasma analysis of CNP and cGMP levels were performed as described in
Animals and dosing: The pharmacokinetic and pharmacodynamic studies in Gottingen Minipig or domestic LYD pig were conducted at CRO Minerva Imaging or Novo Nordisk A/S, respectively. CNP compounds were dosed to normal female 1) Gottingen minipigs 6-12 months of age with an average weight of 22 kg or 2) domestic LYD pigs 4-5 months of age with and average weight of 80 kg. At least one week prior to dosing, permanent central venous catheters were implanted for blood sampling and intravenous (i.v.) dosing. For subcutaneous (s.c.) dosing, the pigs were ultrasound scanned and the optimal injection area laterally on the neck marked by a permanent tattoo. An insulin pen (NovoPen Echo or NovoPen 4) and insulin needle (NovoFine 32G/4 mm or NovoTwist 32G/5 mm) were used for accurate deposition of the CNP formulations in the subcutaneous fat tissue with the needle perpendicular to the skin.
CNP compounds were formulated according to the principles in General Methods of Preparation—Method G and were either A) 8 mM sodium phosphate, 250 mM glycerol, pH 6.5, B) 5 mM sodium acetate, 250 mM glycerol, pH 4.0, C) 5 mM sodium acetate, 240 mM propylene glycol, pH=4.0, D) 8 mM sodium phosphate, 250 mM glycerol, pH 7.5 or E) 20 mM sodium phosphate, 223 mM propylene glycol, pH 6.0.
Intravenously, the CNP compounds were dosed at 30-60 nmol/kg to Minipig and 15-43 nmol/kg to domestic pig using formulations A-E. Subcutaneously, the CNP compounds were dosed at 55-62 nmol/kg to Minipig and 20-30 nmol/kg to domestic pig using formulations A-D.
Sampling: Blood samples of approximately 1 mL were collected pre dose and up to 14 days post dose into EDTA-coated tubes (8 mM) for cGMP and CNP compound analysis by LC-MS. In few instances, cGMP was only analysed up to 48 hours post dose after intravenous dosing in domestic LYD pig. The blood samples were kept on wet ice for maximum 30 minutes until centrifugation for 10 minutes at 4° C. and minimum 1500G, and the plasma samples were stored at −20° C. until analysis.
Plasma concentration-time profiles were analyzed by non-compartmental PK analysis using Phoenix WinNonlin 8.1, Pharsight Inc., Mountain View, CA, USA. Calculation of the area under the plasma concentration-time curve (AUC) was based on the “linear up log down” method, and uniform weighting was used for estimation of the terminal rate constant (λz). S.c. bioavailability (F) was calculated as the dose-normalized AUC (AUC/dose) after s.c. administration divided by the AUC/dose after i.v. administration. […]

Data set [2] in a line: Accelerated chemical stability (RP-UPLC recovery and LCMS degradation pattern, 37° C.). It is filed as physicochemical. More on the design: Isomers TZ / Isomers 2 W / Loss of 18 amu TZ / Loss of 18 amu 2 W / Fragments TZ / Fragments 2 W / Fragments 1 W / Fragments 3 W / Fragments 4 W / Fragments 5 W / Fragments 6 W / Others 1 W / Others 3 W / Others 4 W / Others 5 W / Others 6 W / Isomers 1 W / Isomers 3 W / Isomers 4 W / Isomers 5 W / Isomers 6 W / Loss of 18 amu 1 W / Loss of 18 amu 3 W / Loss of 18 amu 4 W / Loss of 18 amu 5 W / Loss of 18 amu 6 W: unit not given here. Particulars: LCMS, 5 mM sodium acetate, 250 mM glycerol, pH 4. On the procedure: In order to determine the chemical stability of CNP compounds in formulation, samples of CNP compounds in buffer were exposed to accelerated chemical degradation by heating. The stability of a given peptide was assessed by measuring recovery of intact peptide by quantification by RP-UPLC. To assess the chemical degradation pattern samples were also analysed by LC-MS.
Sample preparation: Samples for the 2 week study were prepared according to the principles described in Example 5.
Samples for the 6 week study were prepared by dissolving lyophilized peptide in buffer (8 mM phosphate, 250 mM glycerol, pH 7.4) to a nominal peptide concentration of 5000 nmol/ml followed by pH adjustment with 0.1 N HCl to pH 6.5.
Incubation: For the 2 week study a time-zero (TZ) sample was pulled and stored at −18° C. and the remaining volume was incubated at 37° C. Samples were pulled and stored at −18° C. after 2 weeks of incubation. Frozen samples were thawed, diluted to about 200 nmol/mL and the extent of chemical degradation was determined using LCMS as described.
For the 6 week study a time-zero (TZ) sample was pulled and stored at −18° C. and the remaining volume was incubated at 37° C. Samples were pulled on a weekly basis and stored at −18° C. until the last sampling time point at 6 weeks. Frozen samples were thawed, diluted to about 200 nmol/mL and the extent of chemical degradation was determined using RP-UPLC and LCMS as described.
Analysis of peptide recovery by RP-UPLC: The RP-UPLC method was performed on a Waters ACQUITY H-CLASS UPLC system fitted with a PDA detector. Separation was carried out on an ACQUITY UPLC BEH C8 Column (130 Å, 1.7 μm, 2.1 mm×150 mm) operating at a column temperature of 50° C. with eluent A (19.59 mM NH4H2PO4 41.71 mM (NH4)2HPO4, pH 6.5 and MeCN 9:1 v:v) and eluent B (80% MeCN in water). UV-detection was carried out at 214 nm. The analysis was performed by injection of 3 μL of sample onto the column which was eluted with a 1-step linear gradient of eluents A and B from 27 to 30% B over 20 minutes followed by a wash at 95% B over 2 minutes followed by a re-equilibration phase for 7 minutes at a constant flow rate of 0.3 mL/min. This yielded an analysis time of 30 minutes per sample. The area of the peak corresponding to intact CNP compound was given on a percentage scale relative to the total peptide peak area.
Analysis of chemical degradation patterns by LCMS: Samples were analysed on a […] UPLC from Thermo Scientific, using a Waters Acquity C18 reversed-phase column, 300 Å, […] particles 1 mm×150 mm. The compounds were separated by a linear gradient of solvent B from 5% to 55% over 48 minutes, using solvent A: water, 0.1% formic acid with 0.02% TFA and solvent B: acetonitrile, 0.1% formic acid with 0.02% TFA. Mass spectra were acquired by a Q Exactive Plus hybrid Quadrupole-Orbitrap mass spectrometer, BioPharma option (Thermo Scientific) interfaced with H-ESI II ion source. Data acquisitions were performed with a m/z 500 to 2000 scan range and a resolution of 30000.
The data list was aggregated into a summed table of the compounds. The table headers were defined as follows: […]
Results: The results from LCMS analysis of a 2 week accelerated degradation study on several CNP compounds of the present invention are summarised in Table 12. The results from RP-UPLC and LCMS analysis of a 6 week accelerated degradation study on CNP compound 9482 (Chem. 137) is summarised in Table 13 and Table 14 respectively.

In another data set the target is neprilysin (NEP) (Homo sapiens, UniProt P08473). Briefly: In vitro neprilysin stability. Particulars: recombinant human neprilysin (rhNEP), pH 7.4.
neprilysin (NEP), sequence (P08473 whole entry): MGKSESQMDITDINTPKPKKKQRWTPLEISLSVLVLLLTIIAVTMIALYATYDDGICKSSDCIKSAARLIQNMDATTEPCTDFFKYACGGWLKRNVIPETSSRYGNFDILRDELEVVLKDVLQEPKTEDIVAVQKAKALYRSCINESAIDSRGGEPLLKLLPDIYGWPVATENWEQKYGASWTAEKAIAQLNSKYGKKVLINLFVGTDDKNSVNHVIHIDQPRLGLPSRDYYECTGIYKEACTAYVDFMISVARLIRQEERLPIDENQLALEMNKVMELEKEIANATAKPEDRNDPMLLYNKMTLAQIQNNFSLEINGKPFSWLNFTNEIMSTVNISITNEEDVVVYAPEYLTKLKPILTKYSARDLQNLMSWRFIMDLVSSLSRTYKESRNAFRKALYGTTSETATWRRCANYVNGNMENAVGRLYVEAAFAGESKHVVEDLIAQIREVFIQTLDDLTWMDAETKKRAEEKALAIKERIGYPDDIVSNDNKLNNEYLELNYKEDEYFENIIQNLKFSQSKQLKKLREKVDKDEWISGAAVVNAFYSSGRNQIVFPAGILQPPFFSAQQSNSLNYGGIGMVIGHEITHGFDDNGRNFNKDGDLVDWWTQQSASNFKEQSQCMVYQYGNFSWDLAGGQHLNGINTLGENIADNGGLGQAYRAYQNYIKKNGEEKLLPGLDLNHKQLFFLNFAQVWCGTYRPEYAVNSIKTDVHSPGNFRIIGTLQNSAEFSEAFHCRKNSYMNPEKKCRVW

Procedure for neprilysin (NEP): Therefore, an in vitro neprilysin stability assay was set up to test the neprilysin mediated degradation of selected CNP compounds.
Procedure: In short, the assay buffer consisted of PBS-buffer (pH 7.4, ThermoFisher Scientific) with a final concentration of 0.005% v/v tween 20 (Sigma-Aldrich). Recombinant human neprilysin (rhNEP; R&D Systems) and the CNP compounds were dissolved in assay buffer. Native CNP22 (0065, Chem. 1) was included as positive control on each day of incubation. Initially, the CNP compound (the final concentration was 1000 nM) was pre-incubated in assay buffer for 10 min at 37° C. The assay was started by adding either rhNEP (final concentration was 2 μg protein per mL) or assay buffer (adsorption experiment) and the incubation was conducted at 37° C. […] The mixture was centrifuged at 13000 rpm at 4° C. for 20 minutes. After centrifugation, one volume of supernatant was mixed with one volume of Milli-Q water.
Analysis by LCMS: The mixture was analysed by LCMS using an Acquity UPLC Peptide CSH C18 analytical column from Waters (130 Å, 1.7 μm, 1*50 mm) operated at 60° C. A gradient elution was conducted with a Nexera UHPLC system (Shimadzu) using mobile phase A (consisting of Milli-Q water with 0.1% formic acid) and mobile phase B (consisting of acetonitrile with 0.1% formic acid). The flow was 0.3 ml/min. A zenoTOF 7600 mass spectrometer (Sciex) was used as detector and operated in positive electrospray ionisation mode. Data was recorded in full scan mode (m/z 300-1700).
Calibration curves were prepared in assay buffer and treated as study samples. These samples were used for calculating the concentration of the relevant CNP compound in the in vitro samples. Quality control samples were included. For at least 75% of the standards and QCs, the deviation between nominal and calculated concentration was below 20%.
All incubations were conducted in duplicate. Data was reported as percent remaining at 90 min (based on calculated concentrations) compared to the average concentration in the 0.5-minute time point samples.

On to `CC[C@H](C)[C@@H]1NC(=O)[C@H](CCCNC(=N)N)NC(=O)[C@H](CCC(=O)O)NC(=O)[C@H](CC(C)C)NC(=O)[C@@H]2CCCN2C(=O)[C@H](CC(C)C)NC(=O)CNC(=O)[C@H](Cc2ccccc2)NC(=O)[C@@H](NC(=O)CNC(=O)[C@H](CO)NC(=O)[C@H](CO)NC(=O)[C@H](CC(C)C)NC(=O)CNC(=O)[C@H](CCCCN)NC(=O)[C@H](CCCCN)NC(=O)[C@H](CCC(N)=O)NC(=O)[C@H](C)NC(=O)CNC(=O)[C@H](CCCCN)NC(=O)[C@H](Cc2ccc(O)cc2)NC(=O)[C@H](CCCCN)NC(=O)[C@H](CCCNC(=N)N)NC(=O)[C@H](C)NC(=O)[C@H](CCC(N)=O)NC(=O)[C@@H]2CCCN2C(=O)[C@H](Cc2c[nH]cn2)NC(=O)[C@H](CCC(=O)O)NC(=O)[C@H](CCC(N)=O)NC(=O)CC[C@H](NC(=O)CC[C@H](NC(=O)CC[C@H](NC(=O)CC[C@H](NC(=O)CCCCCCCCCCCCCCCCC(=O)O)C(=O)O)C(=O)O)C(=O)O)C(=O)O)CSSC[C@@H](C(=O)O)NC(=O)CNC(=O)[C@H](CC(C)C)NC(=O)CNC(=O)[C@H](CO)NC(=O)[C@H](CC(C)C)NC(=O)[C@H](CO)NC(=O)CNC1=O` [Compound 9483] ({C18 diacid-γGlu-γGlu-γGlu-γGlu}-QEHPQARKYKGAQKKGLSSGCFGLPLERIGSLSGLGC-OH; disulfide 21-37), for which, in data set [1] (iv), the clearance was 1.04 mL/h/kg and the half-life (as a rule, the time needed for the level to fall by half in the phase considered) is 88 h. Besides, in data set [1] (sc), the bioavailability (in general, dose-corrected exposure relative to a reference, in per cent) was 44% and the half-life was 75 h. Moreover, in data set [2] (2 weeks at 37° C.), the “Fragments 2 W” value worked out at 0, the “Isomers 2 W” value was 0, the “Loss of 18 amu 2 W” value was 0 and the Others 2 W was determined as 0.6%. Besides, in data set [2] (time zero), the “Fragments TZ” value is 0, the “Isomers TZ” value was 0, the “Loss of 18 amu TZ” value was determined as 0 and the Others TZ was 0.2%. Also, the fraction remaining at 1.5 h, 1000 nM on neprilysin (NEP) stood at 106%.
